These results are taken from patent publication US20230286969A1, “AROMATIC SPIRO RING AMIDE DERIVATIVES FOR THE TREATMENT AND PROPHYLAXIS OF HEPATITIS B VIRUS INFECTION” (Hoffmann-La Roche Inc., priority 2020, published 2023).

Structures are written as SMILES. Like-named read-outs stand apart in the source and are kept apart here.

Common to all, as to type: cell-based
Series [1] is described as follows: PHH natural infection assay, cytotoxicity (Cell Counting Kit-8). The conditions noted are these: human, HBV-infected primary human hepatocytes, CCK8, end of treatment. An outline of the steps:
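HBV-infected at 200 GE/cell with 4% PEG8000 for 24 h, then sandwich-cultured 72 h in 1% DMSO and 0.25 mg/mL matrix gel. Compound added twice at 72-h intervals; supernatant HBsAg and HBeAg read by AlphaLISA, HBV DNA by quantitative fluorescence PCR kit. Cytotoxicity by CCK-8.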
On the technique in general: Tetrazolium dyes change colour on reduction, which living cells bring about.

In the next series the test system is HBsAg. The experiment in a line: PHH HBV natural infection assay, HBsAg (alphalisa). An outline of the steps:
(§1)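 Primary human hepatocytes infected with HBV at 200 GE/cell plus 4% PEG8000 for 24 h, then sandwich-cultured 72 h. Compounds were added in two refreshes 72 h apart. HBsAg and HBeAg in supernatant measured by AlphaLISA.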
In general terms: Alpha assays give light when donor and acceptor beads are brought close together.

Another series has as its system HBeAg. Nature of the series: PHH HBV natural infection assay, HBeAg (alphalisa). An outline of the steps:
as §1

The mark [2] stands for this setting: Hepatitis B virus, Hepatocyte, 72 h, read-out: HBsAg IC50, HBV-infected primary human hepatocytes, supernatant, compound medium refreshed two times with 72-hour interval.
The mark [3] stands for this setting: Hepatitis B virus, Hepatocyte, 72 h, read-out: HbeAg IC50, HBV-infected primary human hepatocytes, supernatant, compound medium refreshed two times with 72-hour interval.

Turning to `N=S(=O)(CC1CC1)c1ccc(C(=O)NC2CC3(C2)CC(c2nc4cc(Cl)ccc4o2)C3)o1` (stereo not drawn) [Example 54, N-[6-(5-chloro-1,3-benzoxazol-2-yl)spiro[3.3]heptan-2-yl]-5-(cyclopropylmethylsulfonimidoyl)furan-2-carboxamide], the cytotoxic concentration (CC50) (as a rule, the concentration at which the toxic effect on the cells reaches its halfway point) at 144 h in series [1] is 88.8 µM. In addition, the half-maximal inhibitory concentration (IC50) (as a rule, the concentration that inhibits the measured activity by half) was found to be 0.47 µM with HBsAg (setting [2]) and 0.542 µM in the series on HBeAg (setting [3]).

In turn, `O=C(NC1CC2(C1)CC(c1nc3cc(Cl)ccc3o1)C2)c1ccc(C(F)(F)F)o1` (stereo not drawn) [Example 1, N-[6-(5-chloro-1,3-benzoxazol-2-yl)spiro[3.3]heptan-2-yl]-5-(trifluoromethyl)furan-2-carboxamide] yielded a CC50 at 144 h in series [1] of 96.8 µM. The concentration for half-maximal inhibition (IC50) was 3.63 µM in the series on HBsAg (setting [2]) and 2.29 µM in the series with HBeAg (setting [3]).

Compound `O=C(NC1CC2(C1)CC(c1nc3cc(Cl)ccc3o1)C2)c1ccc([S+]([O-])C2CC2)o1` (stereo not drawn) [Example 40, N-[6-(5-chloro-1,3-benzoxazol-2-yl)spiro[3.3]heptan-2-yl]-5-cyclopropylsulfinyl-furan-2-carboxamide] registered a CC50 at 144 h in series [1] of over 10 µM. Further, the half-maximal inhibitory concentration (IC50) in the series with HBsAg (setting [2]) was determined as 0.084 µM; with HBeAg (setting [3]), 0.067 µM.

In turn, `CC(C)S(=O)(=O)Cc1ccc(C(=O)NC2CC3(C2)CC(c2nc4cc(Cl)ccc4o2)C3)o1` (stereo not drawn) [Example 44, N-[6-(5-chloro-1,3-benzoxazol-2-yl)spiro[3.3]heptan-2-yl]-5-(isopropylsulfonylmethyl)furan-2-carboxamide] displayed a CC50 at 144 h in series [1] of 95.8 µM. The IC50 was found to be 1.8 µM in the series with HBsAg (setting [2]) and 1.55 µM with HBeAg (setting [3]).

On to `O=C(N[C@H]1CC2(C1)C[C@H](c1nc3cc(Cl)ccc3o1)C2)c1ccc(S(=O)(=O)NC(=O)C23CC(C2)C3)o1` (single isomer, unassigned) [Example 76, (Sa)-5-(bicyclo[1.1.1]pentane-1-carbonylsulfamoyl)-N-[6-(5-chloro-1,3-benzoxazol-2-yl)spiro[3.3]heptan-2-yl]furan-2-carboxamide, or (Ra)-5-(bicyclo[1.1.1]pentane-1-carbonylsulfamoyl)-N-[6-(5-chloro-1,3-benzoxazol-2-yl)spiro[3.3]heptan-2-yl]furan-2-carboxamide], for which the CC50 at 144 h in series [1] is over 10 µM. The IC50 is 2.84 µM in the series on HBsAg (setting [2]) and 1.99 µM with HBeAg (setting [3]).

`O=C(NC1CC2(C1)CC(c1nc3cc(Cl)ccc3o1)C2)c1occc1Br` (stereo not drawn) [Example 5, 3-bromo-N-[6-(5-chloro-1,3-benzoxazol-2-yl)spiro[3.3]heptan-2-yl]furan-2-carboxamide] gave a CC50 at 144 h in series [1] of 73.2 µM. Also, the IC50 was found to be 8.19 µM with HBsAg (setting [2]) and 6.29 µM with HBeAg (setting [3]).

`CS(=O)(=O)Cc1ccc(C(=O)NC2CC3(C2)CC(c2nc4cc(Cl)ccc4o2)C3)o1` (stereo not drawn) [Example 30, N-[6-(5-chloro-1,3-benzoxazol-2-yl)spiro[3.3]heptan-2-yl]-5-(methylsulfonylmethyl)furan-2-carboxamide]: the CC50 at 144 h in series [1] was over 100 µM. Moreover, the IC50 was 3.97 µM in the series on HBsAg (setting [2]) and 2.17 µM in the series on HBeAg (setting [3]).

In series [1], `CC(C)c1ccc(C(=O)NC2CC3(C2)CC(c2nc4cc(Cl)ccc4o2)C3)o1` (stereo not drawn) [Example 7, N-[6-(5-chloro-1,3-benzoxazol-2-yl)spiro[3.3]heptan-2-yl]-5-isopropyl-furan-2-carboxamide] registered a cytotoxic concentration (CC50) at 144 h of 85.9 µM. Also, the 50% inhibitory concentration (IC50) is 3.57 µM in the series with HBsAg (setting [2]) and 1.34 µM with HBeAg (setting [3]).

With `N=S(=O)(c1ccc(C(=O)NC2CC3(C2)CC(c2nc4cc(Cl)cnc4o2)C3)o1)C1CC1` (single isomer, unassigned) [Example 64-a, N-[6-(6-chlorooxazolo[5,4-b]pyridin-2-yl)spiro[3.3]heptan-2-yl]-5-(cyclopropylsulfonimidoyl)furan-2-carboxamide], in series [1], the CC50 at 144 h is over 10 µM. Besides, the IC50 was 8.45 µM in the series on HBsAg (read-out: HBsAg IC50, HBV-infected primary human hepatocytes, supernatant, compound medium refreshed two times with 72-hour interval) and 4.81 µM with HBeAg (read-out: HbeAg IC50, HBV-infected primary human hepatocytes, supernatant, compound medium refreshed two times with 72-hour interval).
